Values joined by “and” are separate entries in the source; they are usually repeats but may differ in a detail not shown here. Equal values may be shown once. Active and inactive are the calls of the source.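 Rule for the calls: active = compounds giving half or more protection of infected cells from virus-caused growth loss, again on retest; inactive = the rest.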
System: CEM cells HIV-1 protection, formazan growth assay
Assay: NCI AIDS Antiviral Assay
Settings: for IC50: measured here: growth of uninfected CEM cells
In short: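 Human CEM cells, uninfected and HIV-1-infected, exposed to five drug concentrations; growth measured by soluble formazan assay and scored as percent protection from infection, with protecting compounds retested.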

SMILES | EC50 [µM] | IC50 | outcome
CC(=O)C(=Cc1cccc([N+](=O)[O-])c1)C(C)=O | > 155 | 20.4 µM | 
COc1ccc2c(O)c(Oc3ccccc3)c(=O)oc2c1 | > 200 | 145 µM | 
Fc1cccc(C2ON=C(c3ccccc3)N2C23CC4CC(CC(C4)C2)C3)c1 (configuration not stated) | > 200 | > 200 µM | 
NC(=O)CNC(=O)c1ccccc1SC(=O)CCC[n+]1ccccc1 | 1.17 | 25.7 µM | 
O=c1cc2cc(O)[nH]c(=O)c2c(O)[nH]1 |  |  | inactive
CC(C)=CCc1c(-c2ccc(O)cc2OC2OC(CO)C(O)C(O)C2O)oc2c3c(cc(O)c2c1=O)OC(C)(C)C=C3 (configuration not stated) | > 58.9 | > 58.9 µM | 
C#CCNC(=O)NC(CCCCNC(=O)OCc1ccccc1)C(=O)OCc1ccccc1 (configuration not stated) | > 57.5 | 42.7 µM | 
O=S(=O)(/N=S(/Nc1ccccc1)C(Cl)Cl)c1ccccc1 (configuration not stated) | > 200 | > 200 µM | 
O=S(Nc1ccccc1)c1ccc(-c2ccccc2)cc1 (configuration not stated) | > 200 | > 200 µM | 
C=CCn1c(=S)sc2c(=O)[nH]cnc21 | > 1120 | 195 µM | 
COC(=O)[C@@H]1c2[nH]c3ccccc3c2C[C@@H]2c3ccccc3NC(=O)[C@@H]21 | > 42.7 | > 42.7 µM | 
CCCCN1C(=O)N(c2ccc(OCC)cc2)C2N(CCCC)C1C(C)(C)C2(C)C (configuration not stated) | > 21.9 | > 21.9 µM | 
Cc1cc2c(cc1C)[n+](=O)c(C(=O)C/C(=N/NC(=O)CC#N)C(=O)Nc1ccccc1C(F)(F)F)c(C)n2[O-] | > 13.2 | > 13.2 µM | 
Cc1ccc(/C=C2\N=C(N3CCCCC3)NC2=O)cc1 | > 200 | 191 µM | 
CC(/C=C/C(=O)c1sc(-n2nc(-c3ccccc3)cc2-c2ccccc2)nc1C)=C\c1ccccc1 | > 27.5 | > 27.5 µM | 
C=CCCC(=O)C(=[N+]=[N-])C(=O)CCC(=O)c1ccccc1 | > 200 | 20 µM | 
Nc1nc(Cl)c(Cl)nc1C(=O)O | > 200 | 117 µM | 
CCCCCCCCSc1ncnc2[nH]ncc12 | > 79.4 | 8.51 µM | 
O=C(Nc1ccccc1)Nc1ccc([N+](=O)[O-])cn1 | > 200 | > 200 µM | 
Cc1ccc(-n2c(=O)c3nn4c(=O)n(-c5ccc(C)cc5)c(=O)c4nn3c2=O)cc1 | > 200 | > 200 µM | 
COc1cc2c(cc1OC)C[N+]1(C)CCc3cc(OC)c(OC)cc3C1C2 (configuration not stated) | > 501 | > 501 µM | 
C=C(C)[C@@H]1CC[C@]2(C(=O)O)CC[C@]3(C)[C@H](CC[C@@H]4[C@@]5(C)CC[C@H](C(=O)/C=C/c6ccc(O)cc6)C(C)(C)[C@@H]5CC[C@]43C)[C@@H]12 | > 200 | 2.34 µM | 

SMILES | EC50 [µM] | IC50 | outcome
COC(=O)C(=O)C(C(=O)C(=O)Nc1cc([N+](=O)[O-])ccc1C#N)c1nc2ccccc2[nH]c1=O (configuration not stated) |  |  | inactive
CN(/N=C/C=N/N(C)C1=NCCCN1)C1=NCCCN1 | 110 | > 200 µM | 
COC(=O)c1cc2c(=O)n(C)c3ccccc3n2c1C(=O)OC | > 56.2 | 32.4 µM | 
Cc1c(-c2nnc(-c3ccc(Cl)cc3)o2)c(=O)n(-c2ccccc2)n1C | > 200 | > 200 µM | 
COC(=O)/C(Cl)=C1/CC1COCc1ccccc1 (configuration not stated) | > 186 | 107 µM | 
O=C(CBr)Nc1ccccc1-c1ccccc1NC(=O)CBr |  |  | inactive
CCNC(=S)Nc1c(C#N)c2n(c1C(=O)OCC)CCCCC2 | > 200 | > 200 µM | 
CCOC(=S)SCCSC | > 200 | > 200 µM | 
Cn1c(=O)c(Br)c(C=O)n(CCO[N+](=O)[O-])c1=O | > 200 | 1.78 µM | 
O=C(c1ccc2c(c1)OCO2)N1OC2C=CC1CC2 (configuration not stated) | > 955 | 513 µM | 
CN1CCC2(CC1)C(=O)N(NC(N)=O)C(=O)C2c1ccccc1 (configuration not stated) | > 200 | > 200 µM | 
Cc1ccc(C2CC(c3ccc([N+](=O)[O-])cc3)=Nc3ccccc3S2)cc1 (configuration not stated) | > 13.8 | 7.76 µM | 
O=C1OCCc2c1[nH]c1ccccc21 | > 363 | 219 µM | 
O=C(O)/C(Cl)=C(/Cl)C(=O)Nc1cc(Cl)ccc1Cl |  |  | inactive
CCOC(=O)/C(=C\n1c(=O)[nH]c(=O)[nH]c1=S)C(=O)c1ccccc1 |  |  | inactive
C/C(N)=N/OCc1nc(C)no1 | > 200 | > 200 µM | 
COc1ccc(NC(=S)c2ccoc2C)cc1CC(=O)OC(C)C | 0.174 | 1.51 µM | 
COc1ccc(C2c3cc4c(cc3OC3(OC)COC(=O)C23)OCO4)c(OC)c1 (configuration not stated) | > 100 | 4.68 µM | 
CC1(c2ccc(F)cc2)C2C(=O)NC(=O)C1C(=O)NC2=O (configuration not stated) | > 871 | 575 µM | 
COC(=O)CC(CC(=O)C(=O)OC)C(=O)OC (configuration not stated) | > 251 | > 251 µM | 
CCCC(O)c1cn(C(NC(=O)c2ccccc2)P(=O)(OCC)OCC)nn1 (configuration not stated) | > 200 | > 200 µM | 
C=C(C)C(=O)O[C@H]1[C@H]2[C@H](OC(=O)[C@H]2C)[C@H](O)[C@@H](C)[C@@H]2C=CC(=O)[C@]21C | > 363 | 1.91 µM | 

SMILES | EC50 [µM] | IC50 | outcome
CN1CCN(C(=S)N(C(=O)c2ccc(Cl)cc2)C2CCCCC2)CC1 | > 95.5 | 45.7 µM | 
CCCN(CCC)c1cc2c(cc1F)c(=O)c(C(=O)O)cn2-c1ccc(N2CCN(C)CC2)cn1 | > 200 | 14.8 µM | 
CSC1(C(=O)O)C2CCC3C2CCC31 (configuration not stated) |  |  | inactive
O=S(=O)(F)c1cc(C[P+](c2ccccc2)(c2ccccc2)c2ccccc2)ccc1Cl | > 200 | 91.2 µM | 
CC(=O)OC(=C(C#N)C#N)c1nccnc1C(=O)O | > 200 | > 200 µM | 
Nc1nc(Cl)cc(NCC2(CO)COC2)n1 | > 200 | > 200 µM | 
CCCCCCCCCCCCCCCCCCOCC(C[N+]1(C)CCC(O)CC1)OCC (configuration not stated) | > 0.912 | > 0.912 µM | 
COc1c(OC(C)C)cc2cc(O)c(C(=O)NC3Cc4ccc(c(Cl)n4)O[C@@H]4C=C5C#C/C(=C\C#CC6OC56C4OC4CC(C)(O)C(O)C(C)O4)C(OC4CC(O)C(N(C)C)C(C)O4)COC3=O)cc2c1OC (some centres not stated) |  |  | inactive
O=C1CN(C2CCCCC2)CC(=O)N2CCCCN12 | > 200 | > 200 µM | 
COc1ccc(N=NC(=O)NC(Cc2ccccc2)C(=O)O)cc1 (configuration not stated) | > 200 | 20 µM | 
FC(F)(F)C(F)(F)/C(=N/Nc1ccccc1)SS/C(=N\Nc1ccccc1)C(F)(F)C(F)(F)F | > 200 | 3.16 µM | 
CCOC(=O)/C=C/c1ccc(F)cc1 | > 97.7 | > 97.7 µM | 
O=C(CC(O)(C(F)(F)F)C(F)(F)F)c1cccc(Cl)c1 | > 200 | 182 µM | 
O=C(CC(=O)N1N=C(N(c2ccccc2)c2ccccc2)CC1c1ccccc1)Nc1ccc(Cl)cc1 (configuration not stated) |  |  | inactive
C/C(O)=c1\cc(C#N)c(=C(C#N)C#N)nc1C |  |  | inactive
CC(C)N(C(=O)C12C3C4C1C1C2C3C41C(O)C(C)(C)C)C(C)C (configuration not stated) | 3.02 | 12 µM | 
O=S(=O)(O)C(Cc1nc2ccccc2[nH]1)S(=O)(=O)OCCC1S(=O)(=O)OCCOS1(=O)=O (configuration not stated) | > 200 | 107 µM | 
O=C(O)C1(P(=O)(O)O)CC1 |  |  | inactive
CCOC(=O)C12C(C(=O)O)=C(N)CN1CCc1c2[nH]c2ccccc12 (configuration not stated) | > 58.9 | > 58.9 µM | 
NC(CS)=NCC1C2CC3CC(C2)CC1C3 (configuration not stated) | > 200 | 33.1 µM | 
O=C1/C(=C/c2ccc(Cl)cc2)NC(=S)N1CN1CCCCC1 | > 200 | 28.2 µM | 
Cc1ccc(S(=O)(=O)Nn2c(-c3ccccc3)c(C#N)c(-c3ccc(N(C)C)cc3)c(C#N)c2=O)cc1 | > 100 | 35.5 µM | 

SMILES | EC50 [µM] | IC50 | outcome
Cc1ccc(NC(=O)/C(Cc2nc3ccc([N+](=O)[O-])cc3[nH]c2=O)=N\NC(=O)C[n+]2ccccc2)c(C)c1 | > 234 | 170 µM | 
CCCC(O)[C@@]1(CC)CC(C)C(O)(C2(C)C[C@H](C)[C@@H](C(CC)C(=O)C(C)[C@@H](O)[C@H](C)C3OC(O)(C(CC)C(=O)O)[C@@H](C)C(O)C3CC)O2)O1 (some centres not stated) | 0.138 | 1.78 µM | 
C[C@]12CCC[C@](C)(C(=O)O)[C@@H]1CC[C@@]13C[C@@H](CC[C@@H]12)[C@@H](C(=O)O)C3 | > 200 | > 200 µM | 
COc1ccc2c(c1)c[n+](C)c1c3cc(OC)c(OC)cc3ccc21 | > 151 | 1.32 µM and 1.45 µM and 1.35 µM | 
COc1c(OC)c(C2(O)C(=O)N(C)c3ccccc32)c(OC)c(OC)c1C1(O)C(=O)N(C)c2ccccc21 (configuration not stated) | > 200 | > 200 µM | 
COc1ccc(C2C(Cl)C(=O)N2NC(=O)Cc2ccccc2)cc1OC (configuration not stated) | > 95.5 | > 95.5 µM | 
CC(=O)OCC1OC(n2c(=O)n(-c3ccccc3)c(=O)c3ccccc32)C(OC(C)=O)C(OC(C)=O)C1OC(C)=O (configuration not stated) | > 24 | > 24 µM | 
NC(=O)N1N=C2c3ccccc3CC[C@@H]2C1c1ccccc1 (some centres not stated) |  |  | inactive
Nc1nc(SCc2ccccn2)c2ncn(C3CCCC3)c2n1 | > 200 | 110 µM | 
CC(C)NCC1CCc2cc(CO)c([N+](=O)[O-])cc2N1 (configuration not stated) | > 200 | > 200 µM | 
COc1ccc(-c2nc(Sc3c([N+](=O)[O-])ncn3C)n[nH]2)cc1 | > 537 | 0.562 µM | 
Cc1cc(=O)[nH]c(NN2C(Cl)C(=O)C2c2ccco2)n1 (configuration not stated) | > 17.8 | > 17.8 µM | 
C[C@]12CCC3[C@@H](CCC4(C=N)CC(=O)CC[C@]34C)C1CC[C@@H]2O (some centres not stated) |  |  | inactive
O=C(Nc1ccn(CCO)c(=O)n1)c1ccccc1 | > 692 | > 692 µM | 
O=C1CCC(c2ccccc2)CCN1 (configuration not stated) |  |  | inactive
Cc1ccc(S(=O)(=O)N2CCSCCSCCSCCN(S(=O)(=O)c3ccc(C)cc3)CC2)cc1 | > 12.6 | > 12.6 µM | 
CC(C)=CCC[C@@H](C)C1=C(N)C(O)=C(C)C(=O)C1=O | > 200 | 13.5 µM | 
O=c1/c(=C/c2ccccn2)sc2nc3cc4c(cc3n12)OCCO4 | > 200 | > 200 µM | 
COC1/C=C/OC2(C)Oc3c(C)c(O)c4c(O)c(c(/C=N/N5CC(C)N(C(=O)c6ccccc6)C(C)C5)c(O)c4c3C2=O)NC(=O)C(C)=C/C=C/C(C)C(O)C(C)C(O)C(C)C(OC(C)=O)C1C (configuration not stated) | > 200 | 6.46 µM | 
